Publication PMC10741979, “Inhibition of NMDA Receptor Activation in the Rostral Ventrolateral Medulla by Amyloid-β Peptide in Rats” (Biomolecules, 2023)

Experiments:
Assay type in all cases: in vivo, rats
[1] = system: pGluN1-serine896; assay: Immunohistochemistry, number of pGluN1-serine896-immunoreactive neurons in the RVLM; conditions: 10 min after ICV 2 nmol; mean ± SEM, n = 6; saline group 48.9 ± 1.8; no significant difference
Method: (§1) The procedure of immunostaining of RVLM tissue sections was similar to those previously described. The animals were anesthetized with i.p. urethane (1.2–1.5 g/kg). The rat was sacrificed at 10 min following ICV administration of Aβ or saline by transcardial perfusion with 50 mL of saline followed by 300–400 mL of paraformaldehyde (4%) in 0.1 M phosphate buffer (pH 7.4). The RVLM was post-fixed in the same fixative overnight and then cryoprotected in 30% sucrose in 0.05 M phosphate buffer (pH 7.4) for 48 h. Coronal brainstem sections (30 μm) were cut through the segments using a cryostat (Leica CM3050S, Leica Microsystems Nussloch GmbH, Nussloch, Germany). […] For the relative quantification of immunoreactivity, each image field was captured using a CCD camera mounted on a microscope (Nikon Eclipse E800, Corporation, Tokyo, Japan). […] The average number of immunoreactive (IR) neurons on both sides per section was counted and averaged. We randomly took 4–6 sections per animal and calculated the average number of IR neurons representing the animal’s immunoreactivity to the antibody.
(§2) All values are expressed as mean ± SEM and statistically analyzed using GraphPad Prism version 9.0 for Windows (GraphPad Software, San Diego, CA, USA). We analyzed the original data for NMDA-induced increases in MAP (mmHg) before and after applications of Aβ statistically. […]

[2] = system: GluN2B; assay: Immunofluorescence, number of GluN2B-IF neurons in the RVLM; conditions: 10 min after ICV 2 nmol; mean ± SEM, n = 7; saline group 55.2 ± 1.4
Method: as §1, §2

[3] = system: NMDA receptors in the RVLM; assay: NMDA-induced pressor responses in the RVLM after ICV drug administration
Text: (§3) The procedure for ICV administration of anesthetized rats was similar to those described in our previous study. Adult male Sprague Dawley 8–10 weeks old rats (300–400 g) were used in this experiment under urethane anesthetized (1.2–1.5 g/kg i.p.). The femoral artery was cannulated with polyethylene tubing (PE 50) and connected with its output to BIOPAC Systems Inc. (MP100 or MP160) to measure pulsatile and mean arterial pressure. After a set of blood pressure recordings, each rat was arranged in a stereotaxic frame for ICV and RVLM microinjection using a stainless still needle connected to the Hamilton microsyringes (10 µL). Drugs were microinjected using a syringe pump (KDS 100) at a rate of 10 µL/min. The magnitude of increases in the blood pressure (pressor responses) induced by microinjection of NMDA (0.14 nmol, 100 nL) into the RVLM every 30 min was used as an index of NMDA receptor function in the RVLM. Aβ and 0.9% saline (5 µL) were applied intracerebroventricularly. The data were processed and calculated before the treatment and at a different period after drug administration.
All values are expressed as mean ± SEM and statistically analyzed using GraphPad Prism version 9.0 for Windows (GraphPad Software, San Diego, CA, USA). We analyzed the original data for NMDA-induced increases in MAP (mmHg) before and after applications of Aβ statistically. The time-effect relationship of Aβ on NMDA-induced pressor responses was analyzed using the repeated measure one-way ANOVA followed by Bonferroni’s multiple comparison post-test. p ≤ 0.05 is considered statistically significant. We compared the effects of Aβ on NMDA-increased mean arterial pressure to the control and expressed them as percentage changes; the peak amplitude of NMDA-induced pressor responses before the application of Aβ is taken as control (i.e., 100%). Immunohistochemical data and ELISA data were analyzed using an unpaired t-test. p ≤ 0.05 is considered statistically significant.

[4] = system: pGluN2B-serine1480; assay: Immunofluorescence, number of pGluN2B-serine1480-IF neurons in the RVLM; conditions: 10 min after ICV 2 nmol; mean ± SEM, n = 6; saline group 45.9 ± 1.0 (n = 8); significant difference
Method: as §1, §2

[5] = system: GluN1; assay: Immunohistochemistry, number of GluN1-immunoreactive neurons in the RVLM; conditions: 10 min after ICV 2 nmol; mean ± SEM, n = 6; saline group 63.2 ± 2.4; no significant difference
Method: as §1, §2

[6] = system: NMDA receptors in the RVLM; assay: Pressor response to microinjection of NMDA into the RVLM; conditions: 0.14 nmol
Text: as §3

[7] = ICV 2 nmol (Aβ1-40 n = 14, Aβ1-42 n = 9), NMDA 0.14 nmol into RVLM every 30 min, urethane-anesthetized male SD rats

Aβ1-40: soluble human amyloid-beta peptide 1-40, purchased from Taiclone Biotech Corp.
number of pGluN1-serine896-IR neurons in the RVLM [1]: 46.4 ± 0.8
number of GluN2B-IF neurons in the RVLM [2]: 59.2 ± 2.7
effect on NMDA-induced pressor responses in the RVLM ([3]; ICV 0.2 nmol, n = 12, NMDA 0.14 nmol into RVLM every 30 min, urethane-anesthetized male SD rats): slight reduction
effect on NMDA-induced pressor responses in the RVLM [3, 7]: significantly inhibited
number of pGluN2B-serine1480-IF neurons in the RVLM [4]: 52.6 ± 2.0
number of GluN1-IR neurons in the RVLM [5]: 63.2 ± 3.8

CC12CC3CC(C)(C1)CC(N)(C3)C2 [memantine]
effect on NMDA-induced pressor responses in the RVLM ([3]; ICV 9 nmol alone, n = 6, 10 and 40 min after administration): did not produce any noticeable changes
effect of co-administration on the inhibitory effects of Aβ1-40 on NMDA-induced pressor responses ([3]; ICV memantine 9 nmol with Aβ1-40 2 nmol, n = 4): disappeared

CN[C@H](CC(=O)O)C(=O)O [NMDA, N-methyl-D-aspartate]
duration of pressor responses ([6]; 100 nL into RVLM): 10 to 15 min
onset of pressor responses ([6]; 100 nL into RVLM): ≤ 2 min
effect of microinjection into the RVLM on MAP ([6]; 100 nL, at intervals of 30 min, urethane-anesthetized male SD rats): induced an increase in MAP

CC(C(O)c1ccc(O)cc1)N1CCC(Cc2ccccc2)CC1 (centres unmarked) [ifenprodil]
effect on NMDA-induced pressor responses in the RVLM ([3]; ICV 0.5 nmol alone, n = 5): did not produce any noticeable changes
effect on NMDA-induced pressor responses in the RVLM ([3]; ICV 2.5 nmol alone, n = 5): significantly inhibited
effect of co-administration on the inhibitory effects of Aβ1-40 on NMDA-induced pressor responses ([3]; ICV ifenprodil 0.5 nmol with Aβ1-40 2 nmol, n = 6): attenuated the inhibitory effects

Aβ1-42: soluble human amyloid-beta peptide 1-42, purchased from Taiclone Biotech Corp.
effect on NMDA-induced pressor responses in the RVLM [3, 7]: did not produce any noticeable changes
effect on NMDA-induced pressor responses in the RVLM on co-administration with ifenprodil ([3]; ICV Aβ1-42 2 nmol with ifenprodil 0.5 nmol, n = 6): little effect
effect on NMDA-induced pressor responses in the RVLM on co-administration with memantine ([3]; ICV Aβ1-42 2 nmol with memantine 9 nmol, n = 6): did not show noticeable changes
